Results as given in BigSolDB 2.1.

CCCCCCOC(=O)NC(=N)c1ccc(NCc2nc3cc(C(=O)N(CCC(=O)OCC)c4ccccn4)ccc3n2C)cc1.CS(=O)(=O)O
solubility (mole fraction)
Conditions | 287.37 K | 292.2 K | 297.95 K | 303.97 K | 308.88 K | 313.59 K | 318.4 K | 323.39 K
in DMAc | 0.0228 | 0.0241 | 0.0264 | 0.0285 | 0.0311 | 0.0338 | 0.0372 | 0.0403
in DMF | 0.0217 | 0.0229 | 0.0246 | 0.0269 | 0.0294 | 0.0318 | 0.035 | 0.0385
in ethanol | 0.00092 | 0.00116 | 0.00153 | 0.00208 | 0.00267 | 0.00343 | 0.00458 | 0.00626
in ethylene glycol | 0.00425 | 0.00524 | 0.00619 | 0.00786 | 0.00961 | 0.0112 | 0.0143 | 0.0179
in methanol | 0.0158 | 0.018 | 0.0224 | 0.0274 | 0.0333 | 0.0389 | 0.0471 | 0.055
